Where two headings read alike, the source gives them in different places.
Columns and labels:
[1] = tested on: retroviral vector pWET-TAC ψ2; assay: Infection of NIH-3T3 cells by retroviral vector pWeT-TAC ψ2, count of G418-resistant colonies; assay type: cell-based; details: for inhibition at 3000 µM / activity at 3000 µM: 3mM; for activity at 3000 µM / activity at 2000 µM / activity at 1000 µM: read-out: % of control colonies counted; for inhibition of G418-resistant colony formation (in words): concentrations of Table 1 (1mM to 3mM); for inhibition at 2000 µM / activity at 2000 µM: 2mM; for inhibition at 1000 µM / activity at 1000 µM: 1mM
[2] = tested on: integration of foreign DNA into the genome; details: calcium phosphate mediated DNA transfection; cited from earlier work
monocyte adapted HIV-1 = assay: microbe, parasite or virus in culture; assay type: cell-based; details: for minimal effective concentration: Human immunodeficiency virus 1, Monocyte, 336 h, read-out: Minimum Antiviral Concentration; for Therapeutic Index: PBMC's with M-virus, * partial inhibition only; for virus production (P24 antigen level in supernatant): virus M and PBMC's, Day 14, all concentrations tested
T-cell adapted HIV-1 = assay: microbe, parasite or virus in culture; assay type: cell-based; details: for minimal effective concentration: Human immunodeficiency virus 1, T-cell, 336 h, read-out: Minimum Antiviral Concentration; for Therapeutic Index: T-Cell Line with T-virus; for antiviral activity (P24 antigen level in supernatant): virus T and the T-cell line, Day 14
[3] = tested on: phytohaemagglutinin (PHA) stimulated peripheral blood mononuclear cells (PBMC); assay: Cell toxicity assay, trypan blue exclusion (Example 6), PBMC; details: 150µM; PBMC's; Days 1, 6 and 10
in vitro [4] = details: human, pbmc
in vitro [5] = details: human, t-cell line
[6] = tested on: AZT-resistant HIV isolate; assay type: cell-based, HIV-1
[7] = tested on: monocyte adapted laboratory strain of HIV; assay type: cell-based, HIV-1; details: monocyte line, Day 7
[8] = tested on: continuous human T-cell line; assay: Cell toxicity assay, trypan blue exclusion (Example 6), T-cell line; details: 150µM, Days 1, 6 and 10
vaccinia virus = details: BSC40 cells, 24 hours at 37°C, cited from earlier work
in vitro [9] = details: human
MPSV^28 [10] = assay: Dot-blot analysis of high molecular weight DNA of HL-60 cells after infection with MPSV^28; assay type: cell-based, murine myeloproliferative sarcoma virus; details: 1.5mM, 72 hours after infection
Experimental: In this case cells were pretreated with 0.4% DMSO and […] polybrene for 24 hours. At the time of infection this medium was removed and fresh medium containing the same concentration of DMSO and polybrene, plus 5 x 10^5 c.f.u. of the vector were added to 10^7 cells either in the presence (+) or absence (-) of the inhibitor (5 x 10^6 cells for each condition). 24 hours after infection the medium was removed and cells were placed in fresh medium containing no DMSO or polybrene. Cells were incubated in this medium for another 48 hours before being harvested (approximately 2 x 10^7 cells with, and 2 x 10^7 without the inhibitor).

MPSV^28 [11] = assay: Southern hybridisation of genomic DNA of NIH/3T3 cells after infection with MPSV^28; assay type: cell-based, murine myeloproliferative sarcoma virus; details: 2mM, most obvious at 24 and 48 hours after infection
[12] = NIH3T3, NIH-3T3, G418-resistant colonies, read-out: % inhibition achieved
[13] = NIH3T3, NIH-3T3, G418-resistant colonies

In the case of NC(=O)c1ccc(N)cc1 [4-aminobenzamide, reference compound], the inhibition at 3000 µM [1, 12] is reported as 12%, the activity at 3000 µM [1, 13] is reported as 88% and the “inhibition of G418-resistant colony formation (in words)” value (from here on “inhibition … (in words)”) [1] is reported as “did not inhibit”.
With COc1ccc(C(N)=O)cc1 [4-methoxybenzamide, reference compound] the inhibition at 2000 µM [1, 12] was 15%, the activity at 2000 µM [1, 13] was 85% and the “inhibition … (in words)” value [1] was “did not inhibit”.
For Nc1cccc(C(=O)O)c1 [3-aminobenzoic acid, reference compound], the inhibition at 3000 µM [1, 12] was 10%, the activity at 3000 µM [1, 13] was 90% and the “inhibition … (in words)” value [1] was “did not inhibit”.
With NC(=O)c1cccc(N)c1 [3-aminobenzamide] the “inhibition of the formation of G418 resistant colonies” value ([1]; 1mM inhibitor) was “small degree of inhibition”, the inhibition at 3000 µM [1, 12] was 45% and the activity at 3000 µM [1, 13] was 55%. For the same compound, the inhibition at 3000 µM ([1]; NIH3T3, read-out: inhibition of the formation of G418 resistant colonies) was 50%, the inhibition at 5000 µM ([1]; NIH3T3, 5mM, read-out: inhibition of the formation of G418 resistant colonies) was 60% and the “inhibition … (in words)” value [1] was “significant degree of inhibition”. The “integration of foreign DNA into the genome” value [2] was “blocked”.
In the case of Cc1cn([C@H]2C[C@H](N=[N+]=[N-])[C@@H](CO)O2)c(=O)[nH]c1=O [AZT, 3'-azido-2',3'-dideoxythymidine, reference compound], the minimal effective concentration (monocyte adapted HIV-1) is reported as 0.007 µM, the “Therapeutic Index” value (monocyte adapted HIV-1) is reported as 142 900 and the “virus production (P24 antigen level in supernatant)” value (monocyte adapted HIV-1) is reported as “inhibited virus with a good dose response”. The minimal effective concentration (T-cell adapted HIV-1) was 0.007 µM, the “Therapeutic Index” value (T-cell adapted HIV-1) was 142 900 and the “antiviral activity (P24 antigen level in supernatant)” value (T-cell adapted HIV-1) was “inhibited virus with a good dose response”. The “toxicity (viable counts)” value [3] was “non-toxic”, the MNTC (in vitro [4]) was 1 mM and the MNTC (in vitro [5]) was 1 mM. For the same compound, the “virus inhibition (supernatant p24 antigen)” value [6] was “inhibited completely”, the “virus suppression (supernatant p24 antigen)” value [6] was “did not suppress the virus” and the “antiviral activity (supernatant p24 antigen)” value ([7]; 0.15µM) was “significant antiviral activity”. The “toxicity (viable counts)” value [8] was “non-toxic”.
For NC(=O)c1ccc(NC=O)cc1 [4-formylaminobenzamide, reference compound], the inhibition at 1000 µM [1, 12] was 8%, the activity at 1000 µM [1, 13] was 92% and the “inhibition … (in words)” value [1] was “did not inhibit”.
With NC(=O)c1cccc(NC=O)c1 [3-N-formylaminobenzamide] the inhibition at 1000 µM [1, 12] was 64%, the activity at 1000 µM [1, 13] was 36% and the “inhibition … (in words)” value [1] was “even greater inhibition”.
In the case of NC(=O)c1cccnc1 [nicotinamide], the viral replication (vaccinia virus; 20mM) is listed as “affected” and the “decrease of viral replication” value (vaccinia virus; 60mM) is listed as “greater than 99%”.
In the case of O=C1NC(CCCl)Oc2ccccc21 (stereo not drawn) [Chlorthenoxazine, chlorthenoxazine], the viability at 336 h (in vitro [9]) is reported as > 50%, the “antiviral activity (supernatant p24 antigen)” value ([6]; 0.15µM, PBMC's, Day 7, no smooth dose response) is reported as “possibly active” and the “antiviral activity (supernatant p24 antigen)” value ([7]; concentrations tested 150 to 0.015µM) is reported as “active and has a clear dose response”.
With COc1cccc(C(N)=O)c1 [3-methoxybenzamide] the inhibition at 2000 µM [1, 12] was 82%, the activity at 2000 µM [1, 13] was 18% and the “inhibition … (in words)” value [1] was “very effective”. The “appearance of the proviral DNA” value (MPSV^28 [10]) was “inhibited”, the “appearance of complete proviral DNA in the genomic DNA” value (MPSV^28 [11]) was “inhibited” and the minimal effective concentration (monocyte adapted HIV-1) was 0.19 µM. The “Therapeutic Index” value (monocyte adapted HIV-1) was >15 800*, the “virus production (P24 antigen level in supernatant)” value (monocyte adapted HIV-1) was “partially inhibited virus production” and the minimal effective concentration (T-cell adapted HIV-1) was 0.19 µM. For the same compound, the “Therapeutic Index” value (T-cell adapted HIV-1) was >15 800, the “antiviral activity (P24 antigen level in supernatant)” value (T-cell adapted HIV-1) was “showed particular activity” and the MNTC (in vitro [4]) was 3 mM. For the same compound, the “integration of foreign DNA into the genome” value [2] was “blocked” and the MNTC (in vitro [5]) was 3 mM.
